A short description of data set [1]: Gross toxicity in RIF-1 tumor-bearing mice. Type of data set: in vivo, C3H mice. Conditions: Example 3; 8 mg/kg i.v. daily for eight days. As to the method: (§1) Five to ten days after inoculation with the tumor cells, treatment was initiated with either solvent alone for control groups, or solvent with BFA for the treated group. The mice were treated daily for one to two weeks either intraperitoneally (i.p.) or intravenously (i.v.). The mice (weighing approximately 25 g each) were observed daily for the absence or presence of a tumor, as well as for signs of gross toxicity such as weight loss, hair loss, lethargy, and/or dehydration. The body weight for each mouse was recorded daily until the end of treatment. At the termination of treatment, mice were euthanized, and their tumors removed and stored in formalin for sectioning and staining in future studies. In some experiments, organs such as the kidney, spleen, liver, and brain were also stored in formalin (10%) for future histological analysis of organ toxicity.
On Day 0, C3H mice were inoculated on one flank (s.c.) with 2.5×10^5 RIF-1 tumor cells in 50 μl liquid carrier. Ten days following tumor cell inoculation, mice were randomized into control and treated groups. […]
(§2) All mice were observed daily for signs of gross toxicity and the absence or presence of tumor growth. […] Efficacy was determined by tumor growth delay as evidenced by the size and appearance of the tumor in the treated group relative to control.

For data set [2], the system named is rat aortic ring explant cultures. Nature of the data set: Ex vivo rat aortic ring explant assay (microvessel outgrowth). Type of data set: cell-based, Sprague-Dawley rats. As to conditions: tested concentrations of 200 nM and above (200, 400, 1000 nM); Day 7; average of three trials. How it is done:
The ex vivo influence of brefeldin A on angiogenesis was evaluated as follows. Male Sprague-Dawley rats weighing approximately 250 g were anesthetized and their thoracic aortas removed carefully to avoid damaging the vessel wall. Aortas were rinsed in serum-free endothelial cell basal medium, the surrounding adventitia removed and cleaned, and the vessels cut into two millimeter (mm) concentric rings. Each ring was embedded in freshly prepared rattail collagen. Following gelation for 30 minutes at 37° C., collagen gel cultures were transferred to 16 mm wells (4 well plate), each containing 0.5 ml of serum free (MCBD 131) medium. Brefeldin A was dissolved in DMSO and mixed with serum free medium at final concentrations of 40 nM 100 nM, 200 nM, 400 nM, and 1000 nM immediately prior to the addition of media to collagen-embedded rat aortic ring explant cultures. The final concentration of DMSO in treated and control cultures was 0.02%. Explant cultures were incubated at 35.5° C. in a 5% CO2 humidified atmosphere, and the media replaced every two days over the course of the 8-10 day study. Visual counts of microvessel outgrowths from replicate explant cultures were performed using bright field microscopy during microvessel peak growth (Day 7).
Data were expressed as percent inhibition of microvessel growth relative to vehicle-treated control cultures (FIG. 8). […]

In data set [3] the test system is LL/2 (Lewis lung carcinoma) tumors. Kind of data set: In vivo efficacy in mice carrying LL/2 (Lewis lung carcinoma) tumors. Further details: species or system B6D2F1 mice. How it is done: (§3) For Examples 1-3, the pharmaceutical formulations were prepared just prior to use. Various amounts of brefeldin A (BFA) (mg of drug/kg animal's body weight) were weighed out, and solvent (varying amounts of ethanol in saline) was then added. The mixtures were either vortexed (mechanical mixing) or sonicated until the drug was either completely dissolved or only a very small amount appeared to settle in the bottom the test tube.
(§4) In vivo efficacy was determined using either inbred C3H or hybrid B6D2F1 mice carrying RIF-1 (radiation induced firbrosarcoma-1) or LL/2 (Lewis lung carcinoma) tumors, respectively. The tumor cells were kept in a CO2/O2 atmosphere at 37° C., and grown in monolayers. When confluent, cells were rinsed with ice-cold phosphate buffered ethylenediamine tetraacetic acid (EDTA), followed by trypsin/EDTA treatment for about 3 minutes at 37° C. The cells were then dispersed by the addition of medium with serum and spun down using a centrifuge, then washed once in phosphate-buffered saline (PBS) prior to suspending at the desired density (cells/ml) in sterile Hank's balanced salt solution (HBSS). The cells were then inoculated subcutaneously (s.c.) with either a 100 μl or 50 μl injection on one flank of each mouse to provide the desired number of cells (1.25×10^5, 2.5×10^5 or 5.0×10^5) per site.
as §1
The toxicity and efficacy of brefeldin A (BFA, 11 mg/kg) in 10% ethanol (in saline) were determined in B6D2F1 mice. On Day 0, mice were inoculated on one flank with 1.25×10^5 LL/2 tumor cells in 50 μl liquid carrier. […]
All mice were observed daily for signs of gross toxicity and the absence or presence of tumor growth. […] Efficacy was determined by delay in the appearance of the tumor in the experimental group relative to control.
(§5) The efficacy of brefeldin A (BFA, 12 mg/kg) in 10% ethanol (in saline) was evaluated in B6D2F1 mice with a higher tumor cell burden than used in Example 1. […]

Another data set deals with RIF-1 tumors. Nature of the data set: In vivo efficacy in mice carrying RIF-1 (radiation induced fibrosarcoma-1) tumors. Further details: species or system C3H mice. Conditions: Example 3. How it is done: as §3, §4
Five to ten days after inoculation with the tumor cells, treatment was initiated with either solvent alone for control groups, or solvent with BFA for the treated group. The mice were treated daily for one to two weeks either intraperitoneally (i.p.) or intravenously (i.v.). […] The body weight for each mouse was recorded daily until the end of treatment. […]
The efficacy of a lower dose of BFA (8 mg/kg), in a lower concentration of ethanol (1.0%) in phosphate-buffered saline, relative to Examples 1 and 2 was determined. […]
as §2

Data set [4] relates to Human umbilical vein endothelial cells (HUVECs). Nature of the data set: In vitro capillary tube formation assay on Matrigel. It counts as cell-based. As to conditions: tested concentrations of 4.0 nM and above (4.0, 40, 100, 400 nM); 18 hours. As to the method: The in vitro influence of brefeldin A on angiogenesis was evaluated. Human umbilical vein endothelial cells (HUVECs) were cultured in medium EBM-2 complete™ (BioWhittaker, Inc., Baltimore, Md.). Matrigel® (200 μl, synthetic basement membrane substrate) was pipetted gently to avoid air bubbles on the surface of a 48-well plate. Following application of Matrigel® substrate, the plate was placed in an incubator at 37° C. for 30 minutes to promote gelling. HUVECs were harvested from tissue culture flasks, counted, and diluted to 15×10^4/ml. The cell suspension (200 μl) was added to the Matrigel® substrate, such that the final concentration was 30,000 cells/well. Two wells/concentration were used. For evaluation of antiangiogenic activity, a 0.4 mM BFA stock (in dimethyl sulfoxide, DMSO) was diluted to a final concentration of 400, 100, 40, 4.0, and 0.4 nM before adding cells. The final DMSO concentration was 0.02%. […] To evaluate capillary tube formation, plates were viewed under phase contrast low magnification (10×), a photo reticule was used to define the area, and the capillary tube network was counted within the designated area. Only complete tubes that were inside the rectangle were counted.
Data were expressed as percent of complete capillary tube formation relative to untreated control cultures incubated under the same conditions (control=100%). […]

The nature of data set [5]: Gross toxicity and organ histology in LL/2 tumor-bearing mice. Type of data set: in vivo, B6D2F1 mice. How it is done: as §1
The toxicity and efficacy of brefeldin A (BFA, 11 mg/kg) in 10% ethanol (in saline) were determined in B6D2F1 mice. On Day 0, mice were inoculated on one flank with 1.25×10^5 LL/2 tumor cells in 50 μl liquid carrier. Five days after inoculation with the tumor cells, mice were randomized into control and treated groups. The mice received daily treatments (0.2 ml, i.p.) for two weeks with either 10% ethanol in phosphate-buffered saline (control) or 10% ethanol in phosphate-buffered saline with BFA (treated). Each mouse in the treated group received a total dose of 0.28 mg of BFA daily.
All mice were observed daily for signs of gross toxicity and the absence or presence of tumor growth. In addition, all mice were weighed daily. […] Efficacy was determined by delay in the appearance of the tumor in the experimental group relative to control.
as §5
All mice were observed daily for signs of gross toxicity and the absence or presence of tumor growth. […] Efficacy was determined by delay in the appearance of tumor in the experimental group relative to control.

The mark [6] stands for this setting: Example 2, 12 mg/kg i.p. daily for two weeks, 5.0×10^5 LL/2 cells.

Structures are written as SMILES.

Turning to `C[C@H]1CCC/C=C/[C@@H]2C[C@H](O)C[C@H]2[C@H](O)/C=C/C(=O)O1` [brefeldin A], the “gross toxicity (weight loss, hair loss, lethargy, dehydration)” value in data set [1] is on record as “no gross toxicity was observed”. Besides, in data set [2], the “inhibition of angiogenesis (microvessel growth relative to vehicle-treated control)” value is on record as “more than 50%”. For the same molecule, the “presence of tumor (gross observation, FIG. 1)” value in data set [3] (Example 1, 11 mg/kg i.p. daily for two weeks in 10% ethanol, 1.25×10^5 LL/2 cells) is listed as “no evidence of tumor was observed”. For the same molecule, the “tumor at inoculation site (skin sample histology, FIG. 2A)” value in data set [3] (Example 1, 11 mg/kg i.p. daily for two weeks, after final treatment) is recorded as “No evidence of tumor at the injection site”. Also, in data set [3] (setting [6]), the “tumor growth delay (FIG. 3)” value was “significant tumor growth delay” and the “tumor size reduction relative to control group” value was “at least 25%”. The “vessel density in tumor sections (qualitative)” value in the data set with RIF-1 tumors (8 mg/kg i.v. daily for eight days) is listed as “less vessel density”. In the data set with RIF-1 tumors (8 mg/kg i.v. daily for eight days in 1.0% ethanol, 2.5×10^5 RIF-1 cells), the “tumor size relative to control (FIG. 6)” value is given as “significantly smaller”. In the data set with RIF-1 tumors (8 mg/kg i.v. daily for eight days, control tumors penetrated muscle), the “tumor invasiveness on harvesting” value is “remained relatively localized and relatively easy to remove”. Also, the “inhibition of angiogenesis (complete capillary tube formation relative to untreated control)” value in data set [4] is listed as “more than 50%”. Further, in data set [5] (Example 1, 11 mg/kg i.p. daily for two weeks), the “gross toxicities (weight loss, hair loss, lethargy, dehydration)” value is “not observed”. Moreover, the “toxicity-related effects in brain, kidney, liver, spleen” value in data set [5] (Example 1, 11 mg/kg i.p. daily for two weeks, H&E histology) is listed as “no toxicity-related effects”. Also, the “gross toxicity (weight loss (FIG. 4), hair loss, lethargy)” value in data set [5] (Example 2, 12 mg/kg i.p. daily for two weeks) is “no gross toxicity”.

(Values after patent publication US6696483B2, “Inhibitors of angiogenesis and tumor growth for local and systemic administration” (OncoPharmaceutical, Inc., priority 2000, dated 2004).)
